Assay results as given in article PMC7181131, “N-Pyrazinoyl Substituted Amino Acids as Potential Antimycobacterial Agents—the Synthesis and Biological Evaluation of Enantiomers” (Molecules, 2020).
Converted amounts (≈) assume the structure as drawn. Like-named read-outs stand apart in the source and are kept apart here.

Key:
[1] = system: Candida albicans CCM 8320 (ATCC 24433); experiment: Antifungal microdilution broth method, CA; format: cell-based; conditions: 24 h, read-out: MIC CA
[2] = system: Aspergillus flavus CCM 8363; experiment: Antifungal microdilution broth method, AFla; format: cell-based; conditions: CCM8363, read after 48 h (filamentous fungi), read-out: MIC AFla
[3] = system: Mtb H37Ra ITM-M006710 (ATCC 9431); experiment: Microplate Alamar Blue Assay (MABA) microdilution, Mtb H37Ra; format: cell-based, Mycobacterium tuberculosis; conditions: Mycobacterium tuberculosis
[4] = system: Lichtheimia corymbifera CCM 8077; experiment: Antifungal microdilution broth method, LC; format: cell-based; conditions: CCM8077, 48 h, read-out: MIC LC
[5] = system: M. kansasii CNCTC My 235/80 (ATCC 12478); experiment: Antimycobacterial pre-screening, microdilution broth, M. kansasii; format: cell-based; conditions: Mycobacterium kansasii, ATCC12478; Middlebrook 7H9 broth of declared pH 6.6
[6] = system: M. smegmatis DSM 43465 (ATCC 607); experiment: Microplate Alamar Blue Assay (MABA) microdilution, M. smegmatis; format: cell-based, Mycobacterium smegmatis; conditions: Mycolicibacterium smegmatis
[7] = system: Candida parapsilosis CCM 8260 (ATCC 22019); experiment: Antifungal microdilution broth method, CP; format: cell-based; conditions: Lodderomyces parapsilosis, 24 h, read-out: MIC CP
[8] = system: Mycobacterium aurum DSM 43999 (ATCC 23366); experiment: Microplate Alamar Blue Assay (MABA) microdilution, M. aurum; format: cell-based; conditions: Mycolicibacterium aurum
[9] = system: Klebsiella pneumoniae CCM 4415 (ATCC 10031); experiment: Antibacterial microdilution broth method, KP; conditions: read after 24 h of incubation
[10] = system: Staphylococcus epidermidis CCM 4418 (ATCC 12228); experiment: Antibacterial microdilution broth method, SE; format: cell-based; conditions: 24 h, read-out: MIC SE
[11] = system: Candida krusei CCM 8271 (ATCC 6258); experiment: Antifungal microdilution broth method, CK; format: cell-based; conditions: Pichia kudriavzevii, 24 h, read-out: MIC CK
[12] = system: M. avium ssp. avium CNCTC My 80/72 (ATCC 15769); experiment: Antimycobacterial pre-screening, microdilution broth, M. avium; format: cell-based; conditions: Mycobacterium avium, ATCC15769; Middlebrook 7H9 broth of declared pH 6.6
[13] = system: Candida tropicalis CCM 8264 (ATCC 750); experiment: Antifungal microdilution broth method, CT; format: cell-based; conditions: 24 h, read-out: MIC CT
[14] = system: Trichophyton interdigitale CCM 8377 (ATCC 9533); experiment: Antifungal microdilution broth method, TI; format: cell-based; conditions: 48 h, read-out: MIC TI
[15] = system: Mycobacterium tuberculosis H37Rv CNCTC My 331/88 (ATCC 27294); experiment: Antimycobacterial pre-screening, microdilution broth, Mtb H37Rv; format: cell-based; conditions: Middlebrook 7H9 broth of declared pH 6.6
[16] = system: Aspergillus fumigatus ATCC 204305; experiment: Antifungal microdilution broth method, AF; format: cell-based; conditions: ATCC204305, 48 h, read-out: MIC AF
HepG2 cell line = experiment: HepG2 cytotoxicity, CellTiter 96 (MTS) assay; format: cell-based, human; conditions: Homo sapiens, HepG2; 24 h incubation, CellTiter 96; read-out: HepG2 IC50
[17] = pH 6.6, read-out: MIC Mtb H37Ra
[18] = pH 6, calculated from µg/mL, read-out: MIC Mtb H37Ra
[19] = pH 6, read-out: MIC M. smegmatis µg/mL
[20] = pH 6.6, read-out: MIC M. smegmatis
[21] = pH 6, read-out: MIC M. aurum µg/mL

Row | Compound | MIC [1] | MIC [2] | MIC ([3]; pH 6) | MIC ([3]; pH 6, read-out: MIC Mtb H37Ra) | MIC [3, 17] | MIC [3, 18] | MIC [4] | MIC [5] | MIC [6, 19] | MIC [6, 20] | MIC [7] | MIC [8, 21] | MIC ([8]; pH 6.6, read-out: MIC M. aurum) | MIC KP [9] | MIC [10] | MIC [11] | MIC [12] | MIC [13] | MIC [14] | MIC [15] | other results
1 | C[C@@H](NC(=O)c1cnccn1)C(=O)O [PC-D-Ala, (pyrazine-2-carbonyl)-D-alanine] | > 500 µM | > 500 µM | ≥ 125 µg/mL | ≥ 125 µg/mL | ≥ 500 µg/mL | ≥ 640 µM | > 500 µM | > 100 µg/mL | ≥ 125 µg/mL | ≥ 500 µg/mL | > 500 µM | 62.5 µg/mL (≈ 320 µM) | ≥ 500 µg/mL | > 500 µM | > 500 µM | > 500 µM | > 100 µg/mL | > 500 µM | > 500 µM | > 100 µg/mL | MIC [16]: > 500 µM
2 | O=C(O)CNC(=O)c1cnccn1 [PC-Gly, (pyrazine-2-carbonyl)glycine] | > 500 µM | > 500 µM | ≥ 125 µg/mL | ≥ 125 µg/mL | ≥ 500 µg/mL | ≥ 690 µM | > 500 µM | > 100 µg/mL | ≥ 125 µg/mL | ≥ 500 µg/mL | > 500 µM | ≥ 125 µg/mL | ≥ 500 µg/mL | > 500 µM | > 500 µM | 500 µM (≈ 90.6 µg/mL) | > 100 µg/mL | > 500 µM | > 500 µM | > 100 µg/mL | MIC [16]: > 500 µM
3 | CCOC(=O)[C@H](CC(C)C)NC(=O)c1cnccn1 (racemic) [PC-DL-Leu-Et, ethyl (pyrazine-2-carbonyl)leucinate] | > 500 µM | > 500 µM | 15.6 µg/mL | 15.6 µg/mL | 250 µg/mL | 58.9 µM | > 500 µM | > 100 µg/mL | ≥ 125 µg/mL | 250 µg/mL (≈ 942 µM) | > 500 µM | ≥ 125 µg/mL | 250 µg/mL (≈ 942 µM) | > 500 µM | > 500 µM | > 500 µM | > 100 µg/mL | > 500 µM | > 500 µM | 100 µg/mL (≈ 377 µM) | MIC ([3]; pH 6, Table 4, read-out: Mtb pH 6 MIC): 59 µM; IC50 (HepG2 cell line): 788 µM; MIC [16]: > 500 µM
4 | O=C(N[C@H](CO)C(=O)O)c1cnccn1 [PC-D-Ser, (pyrazine-2-carbonyl)-D-serine] | > 500 µM | > 500 µM | ≥ 250 µg/mL | ≥ 250 µg/mL | ≥ 500 µg/mL | ≥ 1180 µM | > 500 µM | > 100 µg/mL | 125 µg/mL (≈ 592 µM) | ≥ 500 µg/mL | > 500 µM | 62.5 µg/mL (≈ 296 µM) | ≥ 500 µg/mL | > 500 µM | > 500 µM | > 500 µM | > 100 µg/mL | > 500 µM | 500 µM (≈ 106 µg/mL) | > 100 µg/mL | MIC [16]: > 500 µM
5 | COC(=O)[C@H](CC(C)C)NC(=O)c1cnccn1 [PC-L-Leu-Me, methyl (pyrazine-2-carbonyl)-L-leucinate] | > 500 µM | > 500 µM | ≥ 125 µg/mL | ≥ 125 µg/mL | 250 µg/mL | ≥ 497 µM | > 500 µM | > 100 µg/mL | ≥ 125 µg/mL | 250 µg/mL (≈ 995 µM) | > 500 µM | ≥ 125 µg/mL | ≥ 500 µg/mL | > 500 µM | 500 µM (≈ 126 µg/mL) | > 500 µM | > 100 µg/mL | > 500 µM | > 500 µM | 100 µg/mL (≈ 398 µM) | MIC [16]: > 500 µM
6 | COC(=O)[C@@H](CC(C)C)NC(=O)c1cnccn1 [PC-D-Leu-Me, methyl (pyrazine-2-carbonyl)-D-leucinate] | > 500 µM | > 500 µM | ≥ 125 µg/mL | ≥ 125 µg/mL | ≥ 500 µg/mL | ≥ 497 µM | > 500 µM | > 100 µg/mL | ≥ 125 µg/mL | 250 µg/mL (≈ 995 µM) | > 500 µM | ≥ 125 µg/mL | ≥ 500 µg/mL | > 500 µM | > 500 µM | > 500 µM | > 100 µg/mL | > 500 µM | > 500 µM | > 100 µg/mL | MIC [16]: > 500 µM
7 | CCOC(=O)[C@H](Cc1ccccc1)NC(=O)c1cnccn1 (racemic) [PC-DL-Phe-Et, ethyl (pyrazine-2-carbonyl)phenylalaninate] | > 500 µM | > 500 µM | 31.2 µg/mL | 31.2 µg/mL | 250 µg/mL | 104 µM | > 500 µM | > 100 µg/mL | ≥ 125 µg/mL | 250 µg/mL (≈ 835 µM) | > 500 µM | 62.5 µg/mL (≈ 209 µM) | ≥ 500 µg/mL | > 500 µM | 500 µM (≈ 150 µg/mL) | > 500 µM | > 100 µg/mL | > 500 µM | > 500 µM | > 100 µg/mL | MIC [16]: > 500 µM
8 | CCOC(=O)[C@@H](NC(=O)c1cnccn1)C(C)C (racemic) [PC-DL-Val-Et, ethyl (pyrazine-2-carbonyl)valinate] | > 500 µM | > 500 µM | ≥ 125 µg/mL | ≥ 125 µg/mL | ≥ 500 µg/mL | ≥ 497 µM | > 500 µM | > 100 µg/mL | ≥ 125 µg/mL | 250 µg/mL (≈ 995 µM) | > 500 µM | ≥ 125 µg/mL | ≥ 500 µg/mL | > 500 µM | > 500 µM | > 500 µM | > 100 µg/mL | > 500 µM | > 500 µM | > 100 µg/mL | MIC [16]: > 500 µM
